According to ChEMBL document CHEMBL1201862, “PubChem BioAssay data set” (2004):
Activity calls are given as the source filed them.

What was measured:
[1] = reduced cellular PGC1a acetyl-lysine signal – cell-based, cherry-picked samples, dose response (AID 720514); type: functional;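 note: potency may reflect raised or lowered acetylation signal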
[2] = cells
[3] = target: Protein-tyrosine kinase 2-beta (Homo sapiens, UniProt Q14289);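 note: potency of inhibitors of PYK2 kinase phosphorylation of poly-GT substrate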
[4] = target: Major prion protein (Homo sapiens, UniProt P04156); type: functional, cell-based
[5] = Reduced DLD-1 viability, concentration-response, CellTiter-Glo luminescence (AID 1117352); type: functional
[6] = rise of 2N DNA cells, HeLa – IC50, dose response (AID 1117349); type: functional, cell-based
[7] = cytotoxicity toward Colo320 cells – cell-based, CellTiter-Glo luminescence, IC50, dose response (AID 1117334); type: functional; settings: COLO 320
[8] = cytotoxicity toward HCT116 cells – cell-based, CellTiter-Glo luminescence, IC50, dose response (AID 1117332); type: functional; settings: HCT-116
[9] = cytotoxicity toward HT-29 cells – cell-based, CellTiter-Glo luminescence, IC50, dose response (AID 1117330); type: functional
[10] = RKO cell viability reduction, dose response, CellTiter-Glo luminescence (AID 1117322); type: functional
[11] = SNU-C1 cell viability reduction, dose response, CellTiter-Glo luminescence (AID 1117323); type: functional, cell-based
[12] = CellTiter-Glo luminescence survival assay, SW480 colon tumor line, concentration-response curve, half-maximal inhibitory concentration (AID 1117338); type: functional
[13] = rise of 4N DNA cells, HeLa – IC50, dose response (AID 1117351); type: functional, cell-based
[14] = OVCAR-3 cell viability loss – plate reader, dry powder samples, PAX8 inhibitor project, dose response (AID 743044); type: functional, cell-based
[15] = IGROV1 cell killing – plate reader, dry powder samples, PAX8 inhibitor project, dose response (AID 743043); type: functional, cell-based; settings: IGROV-1
[16] = target: Paired box protein Pax-8 (Homo sapiens, UniProt Q06710); experiment: PAX8 transcriptional activity inhibition in RMG-I – RMG-I cells, luciferase, cherry-pick, dose response (AID 687027); type: functional, cell-based;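 note: luciferase reporter driven by Pax8 target thyroperoxidase promoter measured by SteadyGlo luminescence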
[17] = toxicity to human hepatoma HepG2 cells – cell-based, cherry-picked samples, cytotoxicity control, dose response (AID 1159577); type: functional
[18] = general cell-killing toxicity readout – plate reader, dry powder samples, cytotoxicity control for PAX8 inhibitor project, dose response (AID 743021); type: functional, cell-based
[19] = P. falciparum Dd2 growth inhibitors, dose response, SYBR Green, cherry-picked samples (AID 1159567); type: functional, cell-based
[20] = HGIII-sPLA2 enzyme inhibition potency – biochemical, QFRET, IC50, dose response (AID 743457);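 note: green fluorescence rise as the enzyme cleaves BODIPY PC-A2 in liposomes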
[21] = target: T1, DNA repair protein RAD52 homolog (Homo sapiens, UniProt P43351); type: functional, biochemical
T1 sequence (P43351 whole entry): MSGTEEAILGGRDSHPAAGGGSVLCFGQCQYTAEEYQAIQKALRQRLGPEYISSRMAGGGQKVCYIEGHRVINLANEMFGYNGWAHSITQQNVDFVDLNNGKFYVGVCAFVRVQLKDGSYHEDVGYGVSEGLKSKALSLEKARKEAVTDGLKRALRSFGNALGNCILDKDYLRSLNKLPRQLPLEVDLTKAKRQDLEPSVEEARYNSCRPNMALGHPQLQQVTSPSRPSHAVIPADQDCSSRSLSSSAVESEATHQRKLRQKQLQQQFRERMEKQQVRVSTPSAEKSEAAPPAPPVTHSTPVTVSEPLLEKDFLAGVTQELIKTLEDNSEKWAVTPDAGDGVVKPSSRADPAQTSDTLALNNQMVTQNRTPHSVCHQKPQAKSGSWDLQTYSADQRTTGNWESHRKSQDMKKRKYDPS

Structure (SMILES): O=C1C=CCCN1C(=O)/C=C/c1cccc(C(F)(F)F)c1
- AC50 [1]: 1.77 µM (active)

Structure (SMILES): COC(=O)CSc1nc(C(C)C)nc2ccccc12
- IC50 [2]: > 138 µM (inactive)
- IC50 [3]: > 69.5 µM (not active)
- IC50 [4]: 0.91 µM (active)

Structure (SMILES): CCCCOC(=O)c1ccc(N)cc1 [BUTAMBEN]
- IC50 [5]: 4.56 µM (active)
- IC50 [6]: > 10 µM (inactive)
- IC50 [7]: > 20 µM (inactive)
- IC50 [8]: > 20 µM (inactive)
- IC50 [9]: > 20 µM (inactive)
- IC50 [10]: 0.137 µM (active)
- IC50 [11]: > 20 µM (inactive)
- IC50 [12]: 0.586 µM (active)
- IC50 [13]: > 10 µM (inactive)

Structure (SMILES): O=C1CN(S(=O)(=O)Cc2ccccc2)C[C@@H]2[C@H](c3ccc(C#Cc4ccc(F)cc4)cc3)[C@H](CO)N12
- AC50 [14]: 31 µM (active)
- AC50 [15]: 52.7 µM (active)
- AC50 [16]: 9.68 µM (active)

Structure (SMILES): COc1ccc(-c2ccc([C@@H]3[C@@H](CO)N4CCCCN(C(=O)Cc5ccccc5)C[C@H]34)cc2)cc1
- AC50 [17]: > 39 µM (inactive)
- AC50 [18]: 40.8 µM (active)
- AC50 [19]: 6.32 µM (active)
- AC50 [16]: 41.5 µM (active)

Structure (SMILES): N=C(N)/N=N/C(=N\Nc1ccccc1)c1ccc(Cl)cc1
- IC50 [20]: > 122 µM (inactive)
- AC50 [21]: 12.7 µM (active)
